Among the data in patent publication US20150284381A1, “AMINO-PYRIDINE-CONTAINING SPLEEN TYROSINE KINASE (SYK) INHIBITORS” (MERCK SHARP & DOHME CORP., priority 2012, published 2015) are IC50 values, retold here.

The target in this assay is T1, recombinant human GST-Syk (Homo sapiens, UniProt P43405).
T1 construct: purchased Carna Biosciences 08-176
Nature of the assay: Homogeneous Time-Resolved Fluorescence (HTRF) assay for the recombinant human Syk enzyme. The following applies: recombinant human GST-Syk 5 pM, ATP 25 μM, 45 min at rt, read-out: rhSyk. The assay is classed as biochemical. Here is the method: Homogeneous Time-Resolved Fluorescence (HTRF) Assay for the Recombinant Human Syk Enzyme
A recombinant GST-hSyk fusion protein was used to measure potency of compounds to inhibit human Syk activity. The recombinant human GST-Syk (Carna Biosciences #08-176) (5 pM nominal concentration) was incubated with various concentrations of the inhibitor diluted in DMSO (0.1% final concentration) for 10 minutes at rt in 15 mM Tris-HCl (pH 7.5), 0.01% tween 20, 2 mM DTT in 384 well plate format. To initiate the reaction the biotinylated substrate peptide (250 nM final concentration) that contains the phosphorylation site for Syk was added with magnesium (5 mM final concentration) and ATP (25 μM final concentration). Final volume of the reaction was 10 μL. Phosphorylation of the peptide was allowed to proceed for 45′ at rt. To quench the reaction and detect the phosphorylated product, 2 nM of a Europium-anti-phosphotyrosine antibody (Perkin Elmer #AD0161) and 70 nM SA-APC (Perkin-Elmer #CR130-100) were added together in 15 mM Tris pH 7.5, 40 mM EDTA, 0.01% tween 20. Final volume of the quenching solution was 10 μL. The resulting HTRF signal was measured after 30 minutes on a EnVision (Perkin-Elmer) reader using a time-resolved fluorescence protocol. IC50 was determined following 10-dose titration (10 μM to 0.508 nM) and four parameter logistic curve fitting using an assay data analyzer.

In the case of `CCCOc1ccnc(Nc2cc(C)cc(-c3cnc([C@@]4(O)CCc5cc(C(=O)O)ccc54)s3)n2)c1` [Example 2H, (1R)-1-hydroxy-1-(5-{4-methyl-6-[(4-propoxypyridin-2-yl)amino]pyridin-2-yl}-1,3-thiazol-2-yl)-2,3-dihydro-1H-indene-5-carboxylic acid], the IC50 amounted to 0.06 nM.

Regarding `Cc1cc(Nc2cc(-c3c[nH]nn3)ccn2)nc(-c2cnc([C@@]3(O)CCCc4cc(C(=O)N(C)C)ccc43)s2)c1` [Example 6A, (5R)-5-hydroxy-N,N-dimethyl-5-[5-(4-methyl-6-{[4-(1H-1,2,3-triazol-4-yl)pyridin-2-yl]amino}pyridin-2-yl)-1,3-thiazol-2-yl]-5,6,7,8-tetrahydronaphthalene-2-carboxamide], the IC50 is 0.73 nM.

Take `Cc1cc(Nc2cc(C(C)F)ccn2)nc(-c2cnc(C3(O)CCCc4cc(C(=O)O)ccc43)s2)c1` (single isomer, unassigned) [Example 8C, 5-(5-(6-((4-(1-Fluoroethyl)pyridin-2-yl)amino)-4-methylpyridin-2-yl)thiazol-2-yl)-5-hydroxy-5,6,7,8-tetrahydronaphthalene-2-carboxylic acid]: the IC50 stood at 2 nM.

Take `Cc1cc(Nc2cc(C(F)(F)F)ccn2)nc(-c2cnc(C3(O)CCc4cc(C(=O)O)c(F)cc43)s2)c1` (single isomer, unassigned) [Example 1C, (R or S)-6-fluoro-1-hydroxy-1-[5-(4-methyl-6-{[4-(trifluoromethyl)pyridin-2-yl]amino}pyridin-2-yl)-1,3-thiazol-2-yl]-2,3-dihydro-1H-indene-5-carboxylic acid]: the IC50 turned out to be 0.39 nM.

Consider `Cc1cc(Nc2cc(C(F)(F)F)ccn2)nc(-c2cnc(C3(O)CCCc4c3ccc(C(=O)O)c4F)s2)c1` (single isomer, unassigned) [Example 1i, (R or S)-1-fluoro-5-hydroxy-5-[5-(4-methyl-6-{[4-(trifluoromethyl)pyridin-2-yl]amino}pyridin-2-yl)-1,3-thiazol-2-yl]-5,6,7,8-tetrahydronaphthalene-2-carboxylic acid], for which the IC50 was 2.19 nM.

`Cc1cc(Nc2cc(C3CCC(C)CC3)ccn2)nc(-c2cnc([C@@]3(O)CCCc4cc(C(=O)O)ccc43)s2)c1` (stereo partly drawn) [Example 3B, (5R)-5-hydroxy-5-[5-(4-methyl-6-{[4-(4-methylcyclohexyl)pyridin-2-yl]amino}pyridin-2-yl)-1,3-thiazol-2-yl]-5,6,7,8-tetrahydronaphthalene-2-carboxylic acid]: the IC50 was found to be 2 nM.

For the compound `Cc1cc(Nc2cc(C(F)(F)F)ccn2)nc(-c2cnc([C@@]3(O)CCCc4c3ccc(C(=O)O)c4O)s2)c1` (single isomer, unassigned) [Example 7A, 1,5-Dihydroxy-5-[5-(4-methyl-6-{[4-(trifluoromethyl)pyridin-2-yl]amino}pyridin-2-yl)-1,3-thiazol-2-yl]-5,6,7,8-tetrahydronaphthalene-2-carboxylic acid], the IC50 was found to be 4.61 nM.

As to `CCc1ccnc(Nc2cc(C)cc(-c3cnc([C@@]4(O)CCCc5cc(C(=O)O)ccc54)s3)n2)c1` [Example 2F, (5R)-5-(5-{6-[(4-ethylpyridin-2-yl)amino]-4-methylpyridin-2-yl}-1,3-thiazol-2-yl)-5-hydroxy-5,6,7,8-tetrahydronaphthalene-2-carboxylic acid], the IC50 came to 0.2 nM.

Regarding `Cc1cc(Nc2cc(C(F)(F)F)ccn2)nc(-c2cnc(C3(O)CCCc4cc(C(=O)O)c(Cl)cc43)s2)c1` (single isomer, unassigned) [Example 1E, (R or S)-3-chloro-5-hydroxy-5-[5-(4-methyl-6-{[4-(trifluoromethyl)pyridin-2-yl]amino}pyridin-2-yl)-1,3-thiazol-2-yl]-5,6,7,8-tetrahydronaphthalene-2-carboxylic acid], the IC50 worked out at 1.16 nM.

`Cc1cc(Nc2cc(C(F)(F)F)ccn2)nc(-c2cnc(C3(O)CCCc4c3ccc(C(=O)O)c4F)s2)c1` (single isomer, unassigned) [Example 1J, (R or S)-1-fluoro-5-hydroxy-5-[5-(4-methyl-6-{[4-(trifluoromethyl)pyridin-2-yl]amino}pyridin-2-yl)-1,3-thiazol-2-yl]-5,6,7,8-tetrahydronaphthalene-2-carboxylic acid]: the IC50 came to 0.04 nM.

For the compound `Cc1cc(Nc2cc(-c3cn[nH]c3)ccn2)nc(-c2cnc(C3(O)CCCc4cc(C(=O)N(C)C)ccc43)s2)c1` (single isomer, unassigned) [Example 4C-1, 5-Hydroxy-N,N-dimethyl-5-[5-(4-methyl-6-{[4-(1H-pyrazol-4-yl)pyridin-2-yl]amino}pyridin-2-yl)-1,3-thiazol-2-yl]-5,6,7,8-tetrahydronaphthalene-2-carboxamide], the IC50 worked out at 1.04 nM.

As for `Cc1cc(Nc2cc(C(F)(F)F)ccn2)nc(-c2cnc(C3(O)CCCc4cc(C(=O)O)c(Cl)cc43)s2)c1` (single isomer, unassigned) [Example 1F, (R or S)-3-chloro-5-hydroxy-5-[5-(4-methyl-6-{[4-(trifluoromethyl)pyridin-2-yl]amino}pyridin-2-yl)-1,3-thiazol-2-yl]-5,6,7,8-tetrahydronaphthalene-2-carboxylic acid], the IC50 worked out at 0.17 nM.

Consider `Cc1cc(Nc2cc(C3CCCC(C)C3)ccn2)nc(-c2cnc([C@@]3(O)CCCc4cc(C(=O)O)ccc43)s2)c1` (stereo partly drawn) [Example 3A, (5R)-5-hydroxy-5-[5-(4-methyl-6-{[4-(3-methylcyclohexyl)pyridin-2-yl]amino}pyridin-2-yl)-1,3-thiazol-2-yl]-5,6,7,8-tetrahydronaphthalene-2-carboxylic acid], for which the IC50 came to 1.8 nM.

For `CCCc1ccnc(Nc2cc(C)cc(-c3cnc([C@@]4(O)CCc5cc(C(=O)O)ccc54)s3)n2)c1` [Example 3D, (1R)-1-hydroxy-1-(5-{4-methyl-6-[(4-propylpyridin-2-yl)amino]pyridin-2-yl}-1,3-thiazol-2-yl)-2,3-dihydro-1H-indene-5-carboxylic acid], the IC50 is 0.08 nM.

For the compound `Cc1ccnc(Nc2cc(C)cc(-c3cnc([C@@]4(O)CCc5cc(C(=O)O)ccc54)s3)n2)c1` [Example 2A, (1R)-1-hydroxy-1-(5-{4-methyl-6-[(4-methylpyridin-2-yl)amino]pyridin-2-yl}-1,3-thiazol-2-yl)-2,3-dihydro-1H-indene-5-carboxylic acid], the IC50 worked out at 0.15 nM.

For `Cc1cc(Nc2cc(C(F)(F)F)ccn2)nc(-c2cnc([C@@]3(O)CCCc4c3ccc(C(=O)O)c4O)s2)c1` (single isomer, unassigned) [Example 7B, 1,5-Dihydroxy-5-[5-(4-methyl-6-{[4-(trifluoromethyl)pyridin-2-yl]amino}pyridin-2-yl)-1,3-thiazol-2-yl]-5,6,7,8-tetrahydronaphthalene-2-carboxylic acid], the IC50 came to 0.24 nM.

Consider `Cc1cc(Nc2cc(C(F)F)ccn2)nc(-c2cnc([C@@]3(O)CCc4cc(C(=O)O)ccc43)s2)c1` [Example 2i, (1R)-1-[5-(6-{[4-(difluoromethyl)pyridin-2-yl]amino}-4-methylpyridin-2-yl)-1,3-thiazol-2-yl]-1-hydroxy-2,3-dihydro-1H-indene-5-carboxylic acid], for which the IC50 came out at 0.13 nM.

For the compound `CCOc1ccnc(Nc2cc(C)cc(-c3cnc([C@@]4(O)CCCc5cc(C(=O)O)ccc54)s3)n2)c1` [Example 2E, (5R)-5-(5-{6-[(4-ethoxypyridin-2-yl)amino]-4-methylpyridin-2-yl}-1,3-thiazol-2-yl)-5-hydroxy-5,6,7,8-tetrahydronaphthalene-2-carboxylic acid], the IC50 amounted to 0.16 nM.

As to `Cc1cc(Nc2cc(-c3cn[nH]c3)ccn2)nc(-c2cnc(C3(O)CCCc4cc(C(=O)N(C)C)ccc43)s2)c1` (single isomer, unassigned) [Example 4C-2, 5-Hydroxy-N,N-dimethyl-5-[5-(4-methyl-6-{[4-(1H-pyrazol-4-yl)pyridin-2-yl]amino}pyridin-2-yl)-1,3-thiazol-2-yl]-5,6,7,8-tetrahydronaphthalene-2-carboxamide], the IC50 worked out at 757 nM.

With `CCCc1ccnc(Nc2cc(C)cc(-c3cnc([C@@]4(O)CCCc5cc(C(=O)O)ccc54)s3)n2)c1` [Example 3E, (5R)-5-hydroxy-5-(5-{4-methyl-6-[(4-propylpyridin-2-yl)amino]pyridin-2-yl}-1,3-thiazol-2-yl)-5,6,7,8-tetrahydronaphthalene-2-carboxylic acid], the IC50 was determined as 0.42 nM.

`Cc1cc(Nc2cc(-c3cn[nH]c3)ccn2)nc(-c2cnc(C3(O)CCCc4cc(C(=O)O)ccc43)s2)c1` (single isomer, unassigned) [Example 4B-1, 5-Hydroxy-5-[5-(4-methyl-6-{[4-(1H-pyrazol-4-yl)pyridin-2-yl]amino}pyridin-2-yl)-1,3-thiazol-2-yl]-5,6,7,8-tetrahydronaphthalene-2-carboxylic acid]: the IC50 was 1.2 nM.

For the compound `Cc1cc(Nc2cc(C(C)F)ccn2)nc(-c2cnc(C3(O)CCCc4cc(C(=O)O)ccc43)s2)c1` (single isomer, unassigned) [Example 8B, 5-(5-(6-((4-(1-Fluoroethyl)pyridin-2-yl)amino)-4-methylpyridin-2-yl)thiazol-2-yl)-5-hydroxy-5,6,7,8-tetrahydronaphthalene-2-carboxylic acid], the IC50 came to 0.1 nM.
